# Earlier results, collected in patent publication US20240277627A1, “NOVEL FLUOROCHEMICAL CARDIAC RESUSCITATION” (NUVOX PHARMA LLC, priority 2023, published 2024).
smiles,measurement,setting,value
"FC(F)(F)C(F)(F)C(F)(F)C(F)(F)C(F)(F)F [DDFP, n-dodecafluoropentane]",metabolism / route of clearance,clears from the body via exhalation,not metabolized
same,terminal half-life,humans,about 90 minutes
